Activity calls are given as the source filed them. The calls are words filed in the database; no cut-off is given here.
Each compound was assayed on Echinochloa crus-galli (assay: Herbicidal activity against Echinochloa crus-galli (barnyard grass) at 50 g a.i./a measured after 2 weeks). Conditions: not given.
Assay type: functional

Row | Compound | Activity [%]
1 | CCC(C)NC(=O)c1nc(C)c(C)nc1C(=O)Nc1cc(C)ccc1C (stereo not given) | 70
2 | CCCNC(=O)c1nc(C)c(C)nc1C(=O)Nc1cc(C)ccc1C | 50
3 | Cc1ccc(C)c(NC(=O)c2nc(C)c(C)nc2C(=O)NC(C)C)c1 | 0
4 | CCCCNC(=O)c1nc(C)c(C)nc1C(=O)Nc1cc(C)ccc1C | 80
5 | Cc1ccc(C)c(NC(=O)c2nc(C)c(C)nc2C(=O)NCCC(C)C)c1 | 70
6 | Cc1ccc(C)c(NC(=O)c2nc(C)c(C)nc2C(=O)NCC(C)C)c1 | 90

What follows are compounds tested on Cyperus serotinus (assay: Herbicidal activity against Cyperus serotinus at 50 g a.i./a measured after 3 weeks). Conditions: not given.
Assay type: functional

Row | Compound | Activity [%]
7 | CCC(C)NC(=O)c1nc(C)c(C)nc1C(=O)Nc1cc(C)ccc1C (stereo not given) | 95
8 | CCCNC(=O)c1nc(C)c(C)nc1C(=O)Nc1cc(C)ccc1C | 90
9 | Cc1ccc(C)c(NC(=O)c2nc(C)c(C)nc2C(=O)NC(C)C)c1 | 0
10 | CCCCNC(=O)c1nc(C)c(C)nc1C(=O)Nc1cc(C)ccc1C | 100
11 | Cc1ccc(C)c(NC(=O)c2nc(C)c(C)nc2C(=O)NCCC(C)C)c1 | 80
12 | Cc1ccc(C)c(NC(=O)c2nc(C)c(C)nc2C(=O)NCC(C)C)c1 | 100

The compounds below were run on Schoenoplectiella juncoides (assay: Herbicidal activity against Schoenoplectiella juncoides at 50 g a.i./a applied at one-leaf stage by foliar application measured after 3 weeks). Conditions: not given.
Assay type: functional

Row | Compound | Activity [%]
13 | CCC(C)NC(=O)c1nc(C)c(C)nc1C(=O)Nc1cc(C)ccc1C (stereo not given) | 50
14 | CCCNC(=O)c1nc(C)c(C)nc1C(=O)Nc1cc(C)ccc1C | 40
15 | Cc1ccc(C)c(NC(=O)c2nc(C)c(C)nc2C(=O)NC(C)C)c1 | 30
16 | CCCCNC(=O)c1nc(C)c(C)nc1C(=O)Nc1cc(C)ccc1C | 60
17 | Cc1ccc(C)c(NC(=O)c2nc(C)c(C)nc2C(=O)NCCC(C)C)c1 | 20
18 | Cc1ccc(C)c(NC(=O)c2nc(C)c(C)nc2C(=O)NCC(C)C)c1 | 80

What follows are compounds tested on Lactuca sativa (assay: Inhibition of Lactuca sativa longifolia Lams (lettuce) seed germination at 100 ppm after 5 days relative to control). Conditions: not given.
Assay type: functional

Row | Compound | inhibition
19 | CCCN(CCC)C(=O)c1nc(C)c(C)nc1C(=O)Nc1cc(C)ccc1C | inactive
20 | Cc1ccc(C)c(NC(=O)c2nc(C)c(C)nc2C(=O)OCC(C)C)c1 | inactive
21 | CCCCOC(=O)c1nc(C)c(C)nc1C(=O)Nc1cc(C)ccc1C | inactive
22 | Cc1ccc(C)c(NC(=O)c2nc(C)c(C)nc2C(=O)OCCC(C)C)c1 | inactive
23 | Cc1ccc(C)c(NC(=O)c2nc(C)c(C)nc2C(=O)N(C)C)c1 | inactive

Same assay, conditions: 120 h

Row | Compound | inhibition at 100 ppm [%]
24 | CCC(C)NC(=O)c1nc(C)c(C)nc1C(=O)Nc1cc(C)ccc1C (stereo not given) | 65
25 | CCCNC(=O)c1nc(C)c(C)nc1C(=O)Nc1cc(C)ccc1C | 56
26 | Cc1ccc(C)c(NC(=O)c2nc(C)c(C)nc2C(=O)NC(C)C)c1 | 66
27 | CCCCNC(=O)c1nc(C)c(C)nc1C(=O)Nc1cc(C)ccc1C | 35
28 | Cc1ccc(C)c(NC(=O)c2nc(C)c(C)nc2C(=O)NCCC(C)C)c1 | 41
29 | Cc1ccc(C)c(NC(=O)c2nc(C)c(C)nc2C(=O)NCC(C)C)c1 | 59

What follows are compounds tested on Eleusine indica (assay: Inhibition of Eleusine indica germination at 300 ppm after 5 days relative to control). Conditions: not given.
Assay type: functional

Row | Compound | inhibition
30 | CCCN(CCC)C(=O)c1nc(C)c(C)nc1C(=O)Nc1cc(C)ccc1C | inactive
31 | Cc1ccc(C)c(NC(=O)c2nc(C)c(C)nc2C(=O)OCC(C)C)c1 | inactive
32 | CCCCOC(=O)c1nc(C)c(C)nc1C(=O)Nc1cc(C)ccc1C | inactive
33 | Cc1ccc(C)c(NC(=O)c2nc(C)c(C)nc2C(=O)OCCC(C)C)c1 | inactive
34 | Cc1ccc(C)c(NC(=O)c2nc(C)c(C)nc2C(=O)N(C)C)c1 | inactive

Same assay, conditions: 120 h

Row | Compound | inhibition at 300 ppm [%]
35 | CCC(C)NC(=O)c1nc(C)c(C)nc1C(=O)Nc1cc(C)ccc1C (stereo not given) | 44
36 | CCCNC(=O)c1nc(C)c(C)nc1C(=O)Nc1cc(C)ccc1C | 47
37 | Cc1ccc(C)c(NC(=O)c2nc(C)c(C)nc2C(=O)NC(C)C)c1 | 36
38 | CCCCNC(=O)c1nc(C)c(C)nc1C(=O)Nc1cc(C)ccc1C | 40
39 | Cc1ccc(C)c(NC(=O)c2nc(C)c(C)nc2C(=O)NCCC(C)C)c1 | 40
40 | Cc1ccc(C)c(NC(=O)c2nc(C)c(C)nc2C(=O)NCC(C)C)c1 | 50

Each compound was assayed on Eleusine indica (assay: Inhibition of Eleusine indica seed germination at 50 ppm after 5 days relative to control). Conditions: not given.
Assay type: functional

Row | Compound | inhibition
41 | CCCN(CCC)C(=O)c1nc(C)c(C)nc1C(=O)Nc1cc(C)ccc1C | inactive
42 | Cc1ccc(C)c(NC(=O)c2nc(C)c(C)nc2C(=O)OCC(C)C)c1 | inactive
43 | CCCCOC(=O)c1nc(C)c(C)nc1C(=O)Nc1cc(C)ccc1C | inactive
44 | Cc1ccc(C)c(NC(=O)c2nc(C)c(C)nc2C(=O)OCCC(C)C)c1 | inactive
45 | Cc1ccc(C)c(NC(=O)c2nc(C)c(C)nc2C(=O)N(C)C)c1 | inactive

Same assay, conditions: 120 h

Row | Compound | inhibition at 50 ppm [%]
46 | CCC(C)NC(=O)c1nc(C)c(C)nc1C(=O)Nc1cc(C)ccc1C (stereo not given) | 38
47 | CCCNC(=O)c1nc(C)c(C)nc1C(=O)Nc1cc(C)ccc1C | 42
48 | Cc1ccc(C)c(NC(=O)c2nc(C)c(C)nc2C(=O)NC(C)C)c1 | 30
49 | Cc1ccc(C)c(NC(=O)c2nc(C)c(C)nc2C(=O)NCCC(C)C)c1 | 32
50 | Cc1ccc(C)c(NC(=O)c2nc(C)c(C)nc2C(=O)NCC(C)C)c1 | 53

These compounds were tested on Lactuca sativa (assay: Inhibition of Lactuca sativa longifolia Lams (lettuce) seed germination at 50 ppm after 5 days relative to control). Conditions: not given.
Assay type: functional

Row | Compound | inhibition
51 | CCCN(CCC)C(=O)c1nc(C)c(C)nc1C(=O)Nc1cc(C)ccc1C | inactive
52 | Cc1ccc(C)c(NC(=O)c2nc(C)c(C)nc2C(=O)OCC(C)C)c1 | inactive
53 | CCCCOC(=O)c1nc(C)c(C)nc1C(=O)Nc1cc(C)ccc1C | inactive
54 | Cc1ccc(C)c(NC(=O)c2nc(C)c(C)nc2C(=O)OCCC(C)C)c1 | inactive
55 | Cc1ccc(C)c(NC(=O)c2nc(C)c(C)nc2C(=O)N(C)C)c1 | inactive

Same assay, conditions: 120 h

Row | Compound | inhibition at 50 ppm [%]
56 | CCC(C)NC(=O)c1nc(C)c(C)nc1C(=O)Nc1cc(C)ccc1C (stereo not given) | 61
57 | CCCNC(=O)c1nc(C)c(C)nc1C(=O)Nc1cc(C)ccc1C | 43
58 | Cc1ccc(C)c(NC(=O)c2nc(C)c(C)nc2C(=O)NC(C)C)c1 | 58
59 | Cc1ccc(C)c(NC(=O)c2nc(C)c(C)nc2C(=O)NCCC(C)C)c1 | 43
60 | Cc1ccc(C)c(NC(=O)c2nc(C)c(C)nc2C(=O)NCC(C)C)c1 | 55

Each compound was assayed on Eleusine indica (assay: Inhibition of Eleusine indica seed germination at 100 ppm after 5 days relative to control). Conditions: not given.
Assay type: functional

Row | Compound | inhibition
61 | CCCN(CCC)C(=O)c1nc(C)c(C)nc1C(=O)Nc1cc(C)ccc1C | inactive
62 | Cc1ccc(C)c(NC(=O)c2nc(C)c(C)nc2C(=O)OCC(C)C)c1 | inactive
63 | CCCCOC(=O)c1nc(C)c(C)nc1C(=O)Nc1cc(C)ccc1C | inactive
64 | Cc1ccc(C)c(NC(=O)c2nc(C)c(C)nc2C(=O)OCCC(C)C)c1 | inactive
65 | Cc1ccc(C)c(NC(=O)c2nc(C)c(C)nc2C(=O)N(C)C)c1 | inactive

Same assay, conditions: 120 h

Row | Compound | inhibition at 100 ppm [%]
66 | CCC(C)NC(=O)c1nc(C)c(C)nc1C(=O)Nc1cc(C)ccc1C (stereo not given) | 41
67 | CCCNC(=O)c1nc(C)c(C)nc1C(=O)Nc1cc(C)ccc1C | 47
68 | Cc1ccc(C)c(NC(=O)c2nc(C)c(C)nc2C(=O)NC(C)C)c1 | 30
69 | CCCCNC(=O)c1nc(C)c(C)nc1C(=O)Nc1cc(C)ccc1C | 39
70 | Cc1ccc(C)c(NC(=O)c2nc(C)c(C)nc2C(=O)NCCC(C)C)c1 | 34
71 | Cc1ccc(C)c(NC(=O)c2nc(C)c(C)nc2C(=O)NCC(C)C)c1 | 47

These compounds were tested on Sagittaria pygmaea (assay: Herbicidal activity against Sagittaria pygmaea at 50 g a.i./a measured after 3 weeks). Conditions: not given.
Assay type: functional

Row | Compound | Activity [%]
72 | CCC(C)NC(=O)c1nc(C)c(C)nc1C(=O)Nc1cc(C)ccc1C (stereo not given) | 75
73 | CCCNC(=O)c1nc(C)c(C)nc1C(=O)Nc1cc(C)ccc1C | 0
74 | Cc1ccc(C)c(NC(=O)c2nc(C)c(C)nc2C(=O)NC(C)C)c1 | 0
75 | CCCCNC(=O)c1nc(C)c(C)nc1C(=O)Nc1cc(C)ccc1C | 90
76 | Cc1ccc(C)c(NC(=O)c2nc(C)c(C)nc2C(=O)NCCC(C)C)c1 | 85
77 | Cc1ccc(C)c(NC(=O)c2nc(C)c(C)nc2C(=O)NCC(C)C)c1 | 95

The compounds below were run on Lactuca sativa (assay: Inhibition of Lactuca sativa longifolia Lams (lettuce) seed germination at 300 ppm after 5 days relative to control). Conditions: not given.
Assay type: functional

Row | Compound | inhibition
78 | CCCN(CCC)C(=O)c1nc(C)c(C)nc1C(=O)Nc1cc(C)ccc1C | inactive
79 | Cc1ccc(C)c(NC(=O)c2nc(C)c(C)nc2C(=O)OCC(C)C)c1 | inactive
80 | CCCCOC(=O)c1nc(C)c(C)nc1C(=O)Nc1cc(C)ccc1C | inactive
81 | Cc1ccc(C)c(NC(=O)c2nc(C)c(C)nc2C(=O)OCCC(C)C)c1 | inactive
82 | Cc1ccc(C)c(NC(=O)c2nc(C)c(C)nc2C(=O)N(C)C)c1 | inactive

Same assay, conditions: 120 h

Row | Compound | inhibition at 300 ppm [%]
83 | CCC(C)NC(=O)c1nc(C)c(C)nc1C(=O)Nc1cc(C)ccc1C (stereo not given) | 72
84 | CCCNC(=O)c1nc(C)c(C)nc1C(=O)Nc1cc(C)ccc1C | 54
85 | Cc1ccc(C)c(NC(=O)c2nc(C)c(C)nc2C(=O)NC(C)C)c1 | 68
86 | CCCCNC(=O)c1nc(C)c(C)nc1C(=O)Nc1cc(C)ccc1C | 34
87 | Cc1ccc(C)c(NC(=O)c2nc(C)c(C)nc2C(=O)NCCC(C)C)c1 | 47
88 | Cc1ccc(C)c(NC(=O)c2nc(C)c(C)nc2C(=O)NCC(C)C)c1 | 62

Each compound was assayed on Schoenoplectiella juncoides (assay: Pre-emergence herbicidal activity against Schoenoplectiella juncoides at 50 g a.i./a measured after 3 weeks). Conditions: not given.
Assay type: functional

Row | Compound | Activity [%]
89 | CCC(C)NC(=O)c1nc(C)c(C)nc1C(=O)Nc1cc(C)ccc1C (stereo not given) | 100
90 | CCCNC(=O)c1nc(C)c(C)nc1C(=O)Nc1cc(C)ccc1C | 80
91 | Cc1ccc(C)c(NC(=O)c2nc(C)c(C)nc2C(=O)NC(C)C)c1 | 50
92 | CCCCNC(=O)c1nc(C)c(C)nc1C(=O)Nc1cc(C)ccc1C | 100
93 | Cc1ccc(C)c(NC(=O)c2nc(C)c(C)nc2C(=O)NCCC(C)C)c1 | 100
94 | Cc1ccc(C)c(NC(=O)c2nc(C)c(C)nc2C(=O)NCC(C)C)c1 | 10

Each compound was assayed on Oryza sativa (assay: Herbicidal activity against Oryza sativa (rice) at 50 g a.i./a applied at one-leaf stage by foliar application measured after 3 weeks). Conditions: not given.
Assay type: functional

Row | Compound | Activity [%]
95 | CCC(C)NC(=O)c1nc(C)c(C)nc1C(=O)Nc1cc(C)ccc1C (stereo not given) | 99
96 | CCCNC(=O)c1nc(C)c(C)nc1C(=O)Nc1cc(C)ccc1C | 95
97 | Cc1ccc(C)c(NC(=O)c2nc(C)c(C)nc2C(=O)NC(C)C)c1 | 70
98 | CCCCNC(=O)c1nc(C)c(C)nc1C(=O)Nc1cc(C)ccc1C | 100
99 | Cc1ccc(C)c(NC(=O)c2nc(C)c(C)nc2C(=O)NCCC(C)C)c1 | 99
100 | Cc1ccc(C)c(NC(=O)c2nc(C)c(C)nc2C(=O)NCC(C)C)c1 | 99

— ChEMBL document CHEMBL3046670, “Synthesis of Esters, Amides, N-Alkylamides and N, N-Dialkylamides of 2, 3-Dimethyl-5-(2, 5-disubstituted phenylaminocarbonyl)-6-pyrazinecarboxylic Acid and Their Phytotoxicity” (1992)
